This is an account of results in ChEMBL document CHEMBL1145498, “A systematic interaction map of validated kinase inhibitors with Ser/Thr kinases” (Proc Natl Acad Sci U S A, 2007).

SMILES strings stand for the structures.

Assay [1] addresses Casein kinase I isoform gamma-1 (Homo sapiens) (UniProt Q9HCP0).
The target of assay [2] is Tyrosine-protein kinase JAK1 (Homo sapiens) (UniProt P23458).
Assay [3] addresses Ribosomal protein S6 kinase alpha-3 (Homo sapiens) (UniProt P51812).
In assay [4] the target is T1, Calcium/calmodulin-dependent protein kinase type IV (Homo sapiens) (UniProt Q16566).
T1 sequence (whole entry): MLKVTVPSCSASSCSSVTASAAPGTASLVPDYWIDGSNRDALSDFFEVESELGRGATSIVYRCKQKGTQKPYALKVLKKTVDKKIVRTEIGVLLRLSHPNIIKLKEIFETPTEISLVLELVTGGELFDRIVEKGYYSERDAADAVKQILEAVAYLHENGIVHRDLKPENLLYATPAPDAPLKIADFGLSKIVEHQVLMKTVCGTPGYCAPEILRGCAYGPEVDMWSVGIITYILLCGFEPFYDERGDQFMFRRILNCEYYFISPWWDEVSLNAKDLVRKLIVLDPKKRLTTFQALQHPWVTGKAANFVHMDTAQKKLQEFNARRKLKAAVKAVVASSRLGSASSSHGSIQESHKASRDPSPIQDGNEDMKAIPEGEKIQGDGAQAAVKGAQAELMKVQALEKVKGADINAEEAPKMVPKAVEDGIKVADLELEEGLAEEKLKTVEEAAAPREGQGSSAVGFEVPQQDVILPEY

Assay [5] concerns the target Dual specificity mitogen-activated protein kinase kinase 2 (Homo sapiens, UniProt P36507).
The target in assay [6] is Serine/threonine-protein kinase 25 (Homo sapiens) (UniProt O00506).
Assay [7] concerns the target Casein kinase I isoform gamma-3 (Homo sapiens) (UniProt Q9Y6M4).
Assay [8] deals with Glycogen synthase kinase-3 beta (Homo sapiens, UniProt P49841).
In assay [9] the target is Calcium/calmodulin-dependent protein kinase type II subunit delta (Homo sapiens) (UniProt Q13557).
In assay [10] the target is Calcium/calmodulin-dependent protein kinase kinase 2 (Homo sapiens, UniProt Q96RR4).
The target of assay [11] is Calcium/calmodulin-dependent protein kinase type II subunit gamma (Homo sapiens) (UniProt Q13555).
Assay [12] has as its target Serine/threonine-protein kinase pim-2 (Homo sapiens, UniProt Q9P1W9).
The target of assay [13] is Dual specificity protein kinase CLK3 (Homo sapiens) (UniProt P49761).
In assay [14] the target is T2, Serine/threonine-protein kinase VRK1 (Homo sapiens) (UniProt Q99986).
T2 sequence (whole entry): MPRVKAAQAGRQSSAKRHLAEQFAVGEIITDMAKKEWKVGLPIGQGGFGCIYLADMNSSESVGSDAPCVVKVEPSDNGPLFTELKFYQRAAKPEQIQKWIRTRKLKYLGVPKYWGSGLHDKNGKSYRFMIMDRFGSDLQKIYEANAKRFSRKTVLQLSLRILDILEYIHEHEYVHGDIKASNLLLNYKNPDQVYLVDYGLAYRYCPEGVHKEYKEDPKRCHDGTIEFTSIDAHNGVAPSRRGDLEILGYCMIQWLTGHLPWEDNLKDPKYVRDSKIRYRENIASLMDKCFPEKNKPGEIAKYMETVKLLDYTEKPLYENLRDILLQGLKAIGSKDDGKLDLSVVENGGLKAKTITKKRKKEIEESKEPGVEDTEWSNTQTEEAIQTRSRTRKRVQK

Assay [15] deals with 5'-AMP-activated protein kinase catalytic subunit alpha-2 (Homo sapiens) (UniProt P54646).
The target of assay [16] is Calcium/calmodulin-dependent protein kinase type 1G (Homo sapiens) (UniProt Q96NX5).
Assay [17] addresses Casein kinase I isoform gamma-2 (Homo sapiens) (UniProt P78368).
The target in assay [18] is T3, Serine/threonine-protein kinase PLK4 (Homo sapiens) (UniProt O00444).
T3 sequence (whole entry): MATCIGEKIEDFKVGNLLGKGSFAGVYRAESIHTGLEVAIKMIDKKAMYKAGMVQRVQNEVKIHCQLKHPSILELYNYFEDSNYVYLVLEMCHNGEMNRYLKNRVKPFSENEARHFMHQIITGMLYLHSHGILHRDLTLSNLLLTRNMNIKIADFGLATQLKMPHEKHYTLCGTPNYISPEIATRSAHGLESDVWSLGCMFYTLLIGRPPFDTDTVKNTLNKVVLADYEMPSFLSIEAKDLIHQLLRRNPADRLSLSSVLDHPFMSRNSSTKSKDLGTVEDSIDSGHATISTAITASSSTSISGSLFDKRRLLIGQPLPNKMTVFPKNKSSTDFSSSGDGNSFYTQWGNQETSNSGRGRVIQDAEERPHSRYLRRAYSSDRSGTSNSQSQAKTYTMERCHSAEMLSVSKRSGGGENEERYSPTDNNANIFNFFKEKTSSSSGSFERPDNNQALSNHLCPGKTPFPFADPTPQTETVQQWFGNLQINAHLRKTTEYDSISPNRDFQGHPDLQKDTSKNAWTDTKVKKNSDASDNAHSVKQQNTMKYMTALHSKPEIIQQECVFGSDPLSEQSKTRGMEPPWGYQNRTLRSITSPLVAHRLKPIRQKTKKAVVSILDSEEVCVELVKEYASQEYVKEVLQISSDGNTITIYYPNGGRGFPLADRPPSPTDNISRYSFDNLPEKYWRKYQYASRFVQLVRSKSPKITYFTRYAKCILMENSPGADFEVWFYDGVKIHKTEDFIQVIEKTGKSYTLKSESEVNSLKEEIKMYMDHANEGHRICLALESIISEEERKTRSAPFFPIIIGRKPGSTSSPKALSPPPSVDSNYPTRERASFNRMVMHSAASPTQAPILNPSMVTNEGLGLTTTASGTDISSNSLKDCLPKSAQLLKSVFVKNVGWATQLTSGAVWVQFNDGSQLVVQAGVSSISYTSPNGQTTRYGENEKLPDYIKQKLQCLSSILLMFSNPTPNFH

The target in assay [19] is TRAF2 and NCK-interacting protein kinase (Homo sapiens) (UniProt Q9UKE5).
For assay [20], the target named is Mitogen-activated protein kinase 6 (Homo sapiens) (UniProt Q16659).
Chain of Mitogen-activated protein kinase 6 (Homo sapiens) (Q16659 whole entry): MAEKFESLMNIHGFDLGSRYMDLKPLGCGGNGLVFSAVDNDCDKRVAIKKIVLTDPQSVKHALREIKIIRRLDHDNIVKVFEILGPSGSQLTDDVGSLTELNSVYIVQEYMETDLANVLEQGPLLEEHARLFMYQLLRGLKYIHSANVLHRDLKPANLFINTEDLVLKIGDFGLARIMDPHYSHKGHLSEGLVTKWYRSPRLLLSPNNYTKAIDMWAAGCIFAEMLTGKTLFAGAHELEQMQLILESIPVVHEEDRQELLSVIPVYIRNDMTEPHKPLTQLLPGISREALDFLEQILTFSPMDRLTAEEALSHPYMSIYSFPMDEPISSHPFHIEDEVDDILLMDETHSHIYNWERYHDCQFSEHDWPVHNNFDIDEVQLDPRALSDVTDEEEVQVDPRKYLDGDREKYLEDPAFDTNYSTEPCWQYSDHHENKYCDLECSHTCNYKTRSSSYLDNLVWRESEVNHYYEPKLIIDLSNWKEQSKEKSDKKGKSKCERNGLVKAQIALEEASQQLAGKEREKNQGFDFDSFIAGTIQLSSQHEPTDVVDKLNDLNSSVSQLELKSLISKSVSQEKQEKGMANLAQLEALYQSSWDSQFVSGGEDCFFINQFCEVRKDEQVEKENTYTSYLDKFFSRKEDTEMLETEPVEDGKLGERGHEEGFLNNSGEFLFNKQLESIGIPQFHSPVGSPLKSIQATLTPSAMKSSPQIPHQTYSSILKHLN

Chain of Glycogen synthase kinase-3 beta (P49841 whole entry, looked up): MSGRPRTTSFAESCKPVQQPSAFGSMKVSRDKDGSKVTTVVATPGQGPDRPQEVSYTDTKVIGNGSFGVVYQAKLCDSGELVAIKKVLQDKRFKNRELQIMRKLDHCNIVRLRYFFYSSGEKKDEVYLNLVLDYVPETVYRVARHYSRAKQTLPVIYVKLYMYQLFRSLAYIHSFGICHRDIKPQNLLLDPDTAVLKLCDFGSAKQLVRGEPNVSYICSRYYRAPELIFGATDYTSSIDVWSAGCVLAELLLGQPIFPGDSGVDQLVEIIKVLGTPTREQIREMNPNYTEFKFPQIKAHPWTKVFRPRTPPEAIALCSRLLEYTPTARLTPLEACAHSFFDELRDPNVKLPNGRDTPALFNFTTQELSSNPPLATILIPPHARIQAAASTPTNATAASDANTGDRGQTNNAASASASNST
Chain of Calcium/calmodulin-dependent protein kinase type II subunit delta (Homo sapiens) (Q13557 whole entry): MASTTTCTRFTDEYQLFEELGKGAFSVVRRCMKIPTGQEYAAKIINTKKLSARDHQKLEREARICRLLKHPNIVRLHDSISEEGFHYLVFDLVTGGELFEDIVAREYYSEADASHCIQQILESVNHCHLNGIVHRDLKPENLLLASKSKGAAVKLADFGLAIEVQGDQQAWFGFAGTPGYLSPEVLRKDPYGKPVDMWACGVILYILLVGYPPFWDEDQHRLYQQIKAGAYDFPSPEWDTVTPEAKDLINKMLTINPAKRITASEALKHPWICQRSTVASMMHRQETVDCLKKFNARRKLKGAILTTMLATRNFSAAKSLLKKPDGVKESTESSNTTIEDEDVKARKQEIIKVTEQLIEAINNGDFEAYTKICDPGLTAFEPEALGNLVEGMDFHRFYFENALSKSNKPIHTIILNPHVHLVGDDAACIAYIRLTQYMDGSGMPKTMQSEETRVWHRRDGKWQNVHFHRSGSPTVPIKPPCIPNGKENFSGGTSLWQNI
Chain of Casein kinase I isoform gamma-2 (Homo sapiens) (P78368 whole entry, looked up, canonical isoform): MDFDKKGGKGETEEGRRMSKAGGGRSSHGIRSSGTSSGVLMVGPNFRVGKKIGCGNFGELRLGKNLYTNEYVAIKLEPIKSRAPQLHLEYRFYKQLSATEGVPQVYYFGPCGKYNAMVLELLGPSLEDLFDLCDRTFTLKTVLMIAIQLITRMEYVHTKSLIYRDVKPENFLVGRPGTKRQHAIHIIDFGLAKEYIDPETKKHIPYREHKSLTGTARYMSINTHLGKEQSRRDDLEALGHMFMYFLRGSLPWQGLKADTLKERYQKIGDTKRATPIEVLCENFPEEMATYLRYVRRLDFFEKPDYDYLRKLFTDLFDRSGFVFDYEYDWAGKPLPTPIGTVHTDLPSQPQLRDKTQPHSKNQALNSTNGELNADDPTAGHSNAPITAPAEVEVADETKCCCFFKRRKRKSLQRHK
Chain of Casein kinase I isoform gamma-1 (Homo sapiens) (Q9HCP0 whole entry, looked up, canonical isoform): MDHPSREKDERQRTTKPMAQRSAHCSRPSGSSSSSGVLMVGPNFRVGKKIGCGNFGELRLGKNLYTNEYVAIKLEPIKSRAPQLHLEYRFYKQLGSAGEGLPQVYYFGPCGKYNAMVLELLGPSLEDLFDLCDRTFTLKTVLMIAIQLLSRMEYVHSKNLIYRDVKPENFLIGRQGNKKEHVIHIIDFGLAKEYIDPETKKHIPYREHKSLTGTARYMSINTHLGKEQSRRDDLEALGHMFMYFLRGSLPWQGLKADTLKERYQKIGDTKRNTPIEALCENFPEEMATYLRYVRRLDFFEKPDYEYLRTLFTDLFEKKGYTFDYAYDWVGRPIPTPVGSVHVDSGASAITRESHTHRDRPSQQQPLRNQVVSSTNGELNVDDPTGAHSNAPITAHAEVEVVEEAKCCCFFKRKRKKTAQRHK
Chain of Dual specificity mitogen-activated protein kinase kinase 2 (P36507 whole entry): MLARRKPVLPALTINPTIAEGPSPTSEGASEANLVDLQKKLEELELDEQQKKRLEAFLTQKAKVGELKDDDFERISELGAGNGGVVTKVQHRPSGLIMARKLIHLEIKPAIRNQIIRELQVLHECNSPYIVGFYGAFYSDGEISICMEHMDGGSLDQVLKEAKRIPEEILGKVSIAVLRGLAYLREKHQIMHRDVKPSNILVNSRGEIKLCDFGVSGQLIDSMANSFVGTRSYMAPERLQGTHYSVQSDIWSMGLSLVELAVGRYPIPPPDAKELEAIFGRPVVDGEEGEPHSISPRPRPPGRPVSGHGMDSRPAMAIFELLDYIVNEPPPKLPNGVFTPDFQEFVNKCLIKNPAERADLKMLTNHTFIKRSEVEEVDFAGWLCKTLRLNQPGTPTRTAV
Chain of Tyrosine-protein kinase JAK1 (Homo sapiens) (P23458 whole entry): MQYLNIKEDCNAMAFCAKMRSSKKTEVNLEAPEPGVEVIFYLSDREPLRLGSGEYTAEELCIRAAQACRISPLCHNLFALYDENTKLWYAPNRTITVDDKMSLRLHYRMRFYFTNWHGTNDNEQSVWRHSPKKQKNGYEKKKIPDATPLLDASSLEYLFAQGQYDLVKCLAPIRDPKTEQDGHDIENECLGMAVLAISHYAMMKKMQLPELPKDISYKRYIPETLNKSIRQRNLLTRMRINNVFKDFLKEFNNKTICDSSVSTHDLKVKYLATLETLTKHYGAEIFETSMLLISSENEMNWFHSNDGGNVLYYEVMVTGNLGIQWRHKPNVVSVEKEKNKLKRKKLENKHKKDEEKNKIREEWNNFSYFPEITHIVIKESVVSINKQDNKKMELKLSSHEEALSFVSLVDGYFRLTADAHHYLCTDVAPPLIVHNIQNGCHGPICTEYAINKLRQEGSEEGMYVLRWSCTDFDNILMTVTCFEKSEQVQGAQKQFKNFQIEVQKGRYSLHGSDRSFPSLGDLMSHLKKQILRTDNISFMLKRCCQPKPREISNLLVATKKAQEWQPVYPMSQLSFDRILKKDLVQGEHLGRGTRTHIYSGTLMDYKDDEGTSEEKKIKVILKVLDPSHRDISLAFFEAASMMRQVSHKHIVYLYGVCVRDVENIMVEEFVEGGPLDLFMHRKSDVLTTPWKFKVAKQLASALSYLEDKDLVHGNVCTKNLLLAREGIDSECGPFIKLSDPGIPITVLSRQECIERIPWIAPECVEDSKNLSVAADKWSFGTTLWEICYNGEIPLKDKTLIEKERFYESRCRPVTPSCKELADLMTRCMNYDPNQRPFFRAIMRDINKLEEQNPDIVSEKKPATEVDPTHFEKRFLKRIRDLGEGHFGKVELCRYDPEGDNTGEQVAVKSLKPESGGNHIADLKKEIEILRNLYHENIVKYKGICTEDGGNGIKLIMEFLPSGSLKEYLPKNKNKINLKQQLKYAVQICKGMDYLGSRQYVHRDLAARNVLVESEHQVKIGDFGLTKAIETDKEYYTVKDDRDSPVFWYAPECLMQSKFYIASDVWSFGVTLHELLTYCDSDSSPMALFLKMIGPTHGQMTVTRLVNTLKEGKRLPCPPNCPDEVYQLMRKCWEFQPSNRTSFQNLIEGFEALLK
Chain of Calcium/calmodulin-dependent protein kinase kinase 2 (Q96RR4 2-588 limits assumed): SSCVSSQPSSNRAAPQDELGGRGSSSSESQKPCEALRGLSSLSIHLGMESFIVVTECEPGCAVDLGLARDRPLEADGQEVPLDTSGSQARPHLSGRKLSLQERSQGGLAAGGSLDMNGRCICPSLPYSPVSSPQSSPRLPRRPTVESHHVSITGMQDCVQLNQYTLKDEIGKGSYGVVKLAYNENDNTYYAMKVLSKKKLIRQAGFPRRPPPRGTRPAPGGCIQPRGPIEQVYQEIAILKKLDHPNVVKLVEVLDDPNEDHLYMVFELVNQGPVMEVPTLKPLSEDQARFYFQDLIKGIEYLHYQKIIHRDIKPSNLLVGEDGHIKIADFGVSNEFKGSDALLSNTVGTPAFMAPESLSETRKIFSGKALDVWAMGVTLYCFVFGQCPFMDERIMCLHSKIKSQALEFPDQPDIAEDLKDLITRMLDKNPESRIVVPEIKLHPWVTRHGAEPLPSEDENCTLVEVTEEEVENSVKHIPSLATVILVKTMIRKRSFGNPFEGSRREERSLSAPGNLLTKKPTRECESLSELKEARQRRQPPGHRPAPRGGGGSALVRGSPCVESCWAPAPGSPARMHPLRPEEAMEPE
Chain of Serine/threonine-protein kinase pim-2 (Q9P1W9 whole entry, looked up): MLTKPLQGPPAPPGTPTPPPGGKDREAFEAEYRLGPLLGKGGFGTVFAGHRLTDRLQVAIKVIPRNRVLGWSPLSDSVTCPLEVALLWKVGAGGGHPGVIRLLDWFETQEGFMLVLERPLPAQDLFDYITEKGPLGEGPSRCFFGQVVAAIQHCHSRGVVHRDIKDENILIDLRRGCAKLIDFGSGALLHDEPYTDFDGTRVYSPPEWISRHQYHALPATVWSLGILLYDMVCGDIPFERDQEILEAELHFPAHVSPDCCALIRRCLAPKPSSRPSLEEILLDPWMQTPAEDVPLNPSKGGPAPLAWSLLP

Regarding `O=c1cc(-c2ccc(O)cc2)oc2cc(O)cc(O)c12`, the ΔTm in [1] was 1.4 °C; in assay [2] it was 4.6 °C; in assay [3], 2.7 °C; in assay [4] it was 2.1 °C; in assay [5] it was 0.7 °C; in assay [6], 4.9 °C. The shift in melting temperature (ΔTm) in [7] is 0.7 °C; in assay [8], 5 °C; in [9] it was 0.7 °C; in assay [10] it was 3 °C; in [11], -11.5 °C; in [12], 3.8 °C. The shift in melting temperature (ΔTm) in [13] worked out at 3.1 °C; in assay [14] it was 0.2 °C; in assay [15] it was 1.5 °C; in [16], 0.9 °C; in assay [17] it was 0.7 °C; in [18], 5.2 °C. Also, the thermal shift (ΔTm) was 5.3 °C in [19] and 0.5 °C in assay [20].
As for `O=c1cc(N2CCOCC2)oc2c(-c3ccccc3)cccc12`, the ΔTm was 0.6 °C in assay [1]; 0.6 °C in [2]; 0 °C in [3]; 1 °C in [4]; -0.3 °C in assay [5]; 0 °C in [6]. Further, the thermal shift (ΔTm) came to 0.7 °C in assay [7]; 1.1 °C in [8]; 0.4 °C in [9]; 0.4 °C in assay [10]; 0.3 °C in assay [11]; 1.3 °C in assay [12]. Further, the ΔTm in assay [13] is 0.1 °C; in assay [14], 0.8 °C; in assay [15], -0.9 °C; in [16], 0.4 °C; in assay [17], 0.4 °C; in assay [18], 0 °C. In addition, the ΔTm in assay [19] is -0.2 °C; in [20], 0.6 °C.
On to `CN(C)c1ccc(CC2C(=O)Nc3ccccc32)cc1` (stereo not given), for which the ΔTm in assay [1] worked out at 1.2 °C; in assay [2], 5.5 °C; in [3] it was 3.6 °C; in assay [4], 0.1 °C; in assay [5] it was 1.4 °C; in [6], 2.4 °C. Further, the shift in melting temperature (ΔTm) in assay [7] is 0.8 °C; in assay [8] it was 1.2 °C; in assay [9], 0.5 °C; in assay [10], 2 °C; in assay [11] it was 0.2 °C; in assay [12], 0.4 °C. For the same molecule, the thermal shift (ΔTm) was 0.1 °C in assay [13]; -0.2 °C in [14]; 0.3 °C in assay [15]; -0.2 °C in assay [16]; 0.8 °C in [17]; 2.8 °C in assay [18]. The thermal shift (ΔTm) in assay [19] came out at 4.1 °C; in assay [20], 0.1 °C.
For `Cc1cncc2cccc(S(=O)(=O)N3CCCNC[C@@H]3C)c12`, the ΔTm in assay [1] was 0 °C; in [2], -0.1 °C; in assay [3], 2.4 °C; in [4], 0.3 °C; in assay [5], -0.3 °C; in assay [6], 1.1 °C. For the same molecule, the shift in melting temperature (ΔTm) is 0.2 °C in assay [7]; 0.6 °C in assay [8]; -0.4 °C in assay [9]; -0.1 °C in assay [10]; 2.9 °C in [11]; 0.7 °C in [12]. Further, the shift in melting temperature (ΔTm) is 2.6 °C in [13]; 0.6 °C in assay [14]; 1.7 °C in assay [15]; -0.1 °C in [16]; 0.6 °C in [17]; 7 °C in [18]. Besides, the thermal shift (ΔTm) was found to be 1 °C in assay [19] and 0 °C in assay [20].
Regarding `O=c1sn(Cc2ccccc2)c(=S)n1Cc1ccccc1`, the ΔTm worked out at 0.5 °C in [1]; 2.3 °C in assay [2]; 0 °C in assay [3]; 0.9 °C in [4]; 0 °C in assay [5]; 0.5 °C in assay [6]. Further, the ΔTm was 0.4 °C in [7]; -1 °C in assay [8]; 0.6 °C in assay [9]; -1.2 °C in assay [10]; 0.4 °C in assay [11]; -0.2 °C in assay [12]. The ΔTm in [13] was -0.3 °C; in assay [14] it was 0.6 °C; in assay [15], -0.9 °C; in assay [16] it was -0.1 °C; in assay [17] it was 0.2 °C; in assay [18] it was -0.2 °C. Besides, the ΔTm was determined as 0 °C in [19] and 0.5 °C in assay [20].
Consider `N#C/C(=C\c1ccc(O)c(O)c1)C(=O)Nc1ccccc1`, for which the thermal shift (ΔTm) in [1] is 1 °C; in [2], 0.8 °C; in assay [3], 0.8 °C; in assay [4] it was 0.6 °C; in assay [5], 0.3 °C; in assay [6], 0.5 °C. Also, the ΔTm was 1.2 °C in assay [7]; 0.7 °C in [8]; 1 °C in [9]; 0.5 °C in assay [10]; -0.2 °C in [11]; 1.5 °C in [12]. In addition, the ΔTm in [13] is 0.2 °C; in [14], 0.2 °C; in assay [15] it was -0.3 °C; in assay [16] it was 0.4 °C; in [17], 1.2 °C; in [18] it was 1.3 °C. The ΔTm in assay [19] was determined as 1 °C; in assay [20] it was 0.5 °C.
Take `O=c1ccc2ccc(O)c(O)c2o1` [DAPHNETIN]: the ΔTm in assay [1] was 0 °C; in assay [2] it was 0.2 °C; in assay [3], 0 °C; in assay [4], -0.1 °C; in assay [5] it was -0.3 °C; in assay [6] it was -0.5 °C. In addition, the ΔTm in assay [7] was 0.4 °C; in assay [8], 0.2 °C; in assay [9], -0.1 °C; in assay [10] it was 0.5 °C; in assay [11], 0 °C; in assay [12], 0.7 °C. For the same molecule, the shift in melting temperature (ΔTm) in assay [13] is 0.1 °C; in assay [14] it was 0 °C; in assay [15], -0.1 °C; in assay [16] it was 0 °C; in [17] it was 0.1 °C; in assay [18] it was 0.3 °C. In addition, the ΔTm was determined as 0.3 °C in assay [19] and 0.2 °C in assay [20].
